Measured values reported in patent US7629385B2, “Sphingolipid-derived pharmaceutical compositions” (priority 2004, dated 2009).

Legend:
[1] = system: vesicular stomatitis virus (VSV); format: cell-based; details: HeLa cells
Raft liposomes = test: Disrafter-Liposome Raftophile Assay (D-LRA); details: test compound 100 μM
Procedure: The raftophilicity of certain fluorescent indicators varies with the raft content of liposomes which, in turn, is determined by their lipid composition and the presence of raft modulators.
The D-LRA assay detects two extremes of raft modulation, disrafting and raft augmentation. % disrafting below 0 results from an actual increase in partition of the indicator, caused by an increased raft content of the liposomes. […] Significance can be ascribed to values above 25% (disrafting) and below −25% (disrafters by “augmentation”).
Liposomes (defined below) with a raft content of about 50% are incubated with potential disrafters. The change in raft content is then determined with an indicator (standard raftophile).
Raft liposomes: (35% cholesterol, 10.5% shingomyelin (SM), 3.5% GM1, 25.5% phosphatidylethanolamine (PE) and 25.5% phosphatidylcholine (PC))
Non-raft liposomes: N liposomes (50% PE, PC)
Liposomes are prepared by spreading lipids dissolved in tert. butanol on a glass surface at 50° C. in a rotary evaporator rinsed with nitrogen. After 6 h desiccation the lipids are taken up in 40 mM octyl-β-D-glucoside (OG) to a concentration of 1 mg/ml and dialysed for 24 h against 2 changes of 5 I PBS with 25 g Biobeads (Amberlite XAD-2) at 22° C.
Indicators are fluorescent compounds which preferentially partition into rafts. These are selected to represent different structural classes, and different excitation/emission wavelengths. This is important when raft modulators are tested which interfere with indicator fluorescence.
Perylene is a raftophilic compound which embeds completely into membranes.
GS-96 is a raftophilic adduct of the general structure cholesterol-linker-rhodamine-peptide (only the cholesterol is membrane-inserted).
N and R Liposomes were diluted into PBS to a final lipid concentration of 200 μg/ml and 100 μl aliquots preincubated 30 min 37° C. on a thermomixer (1000 rpm).
1 μl of DMSO (solvent controls) and the test compound stock solutions (all 10 mM in DMSO, except where noted) were added and incubated 2 h as above.
1 μl indicator in DMSO was then added (final indicator concentrations GS-96 0.2 μM, perylene 2 μM) and incubation continued for 1 h as above
Incubation mixes were centrifuged 20 min in the TLA-100 rotor of the Beckman Optima centrifuge at 400 000 g (37° C.).

PR8 virus = test: microbe, parasite or virus in culture; format: cell-based, influenza virus
RBL-2H3 cells = test: Degranulation assay (β-hexosaminidase release); format: cell-based, rat
Influenza virus = test: Virus budding assay (influenza assay); format: cell-based; details: MDCK cells
HIV-1 strain NL4-3 = test: HIV assay: infection of HeLa TZM cells; format: cell-based; details: Human immunodeficiency virus 1, NL43, vs solvent
[2] = unidentified influenza virus, PR8, MDCK, read-out: inhibition of PR8 virus replication
[3] = Rattus norvegicus, RBL-2H3, 25 μM, vs solvent vehicle

| SMILES | Disrafting Activity [%] (Raft liposomes; perylene as marker) | inhibition at 20 µM (PR8 virus; [2]) | inhibition at 100 µM (PR8 virus; [2]) | further results |
| --- | --- | --- | --- | --- |
| CCCCCCCCCCCCC/C=C/[C@@H](O)[C@H](CO)NC(=O)COCCOC [Compound 10a] | 99.2% | – | – | effect on viral infection in the VSV counterscreen [1]: no inhibitory effect on viral infection at all |
| CCCCCCCCCCCCC/C=C/[C@@H](O)[C@H](CO)NC(=O)[C@H]1CC[C@H](C(C)(C)C)CC1 [Compound 10e, N-(trans-4-tert-butylcyclohexylcarbonyl)-D-erythro-sphingosine] | – | – | – | inhibition at 10 µM (PR8 virus; [2]): 21% |
| CCCCCCCCCCCCCC=CC(O)C(CO)NC(=O)COCCOCCOCCOCCOC [Compound 10g, N-(3,6,9,12,15-Pentoxahexadecanoyl)-D-erythro-sphingosine] | 89.3% | – | – | inhibition of PR8 virus replication (PR8 virus; 20 μM, MDCK cells, vs solvent vehicle): 70%; activity in the mast cell degranulation assay (words) (RBL-2H3 cells): strongly inhibitory; inhibition of the release of β-hexosaminidase (RBL-2H3 cells; 25 μM, vs solvent vehicle): 65% |
| CCCCCCCCCCCCC/C=C/[C@@H](O)[C@H](CO)NC(=O)COCCOC [Compound 10h, N-(3,6-Dioxaheptanoyl)-D-erythro-sphingosine] | 72.2% | 75% | – | result in the virus budding assay (Influenza virus): particularly good results; inhibition at 25 µM (RBL-2H3 cells; [3]): 71% |
| CCCCCCCCCCCCC/C=C/[C@@H](OC)[C@H](CO)NC(=O)CCCCC [Compound 10k] | 98.6% | 59.3% | – | – |
| CCCCCCCCCCCCC/C=C/[C@@H](OC)[C@@H](N)CO [Compound 10l, 3-Methylated D-erythro-sphingosine] | – | – | – | inhibition at 25 µM (RBL-2H3 cells; [3]): 84% |
| CCCCCCCCCCCCC/C=C/[C@@H](O)[C@H](CO)NCCCCCCCCCCCCCCCC [Compound 10n] | 94.8% | – | 34.7% | – |
| CCCCCCCCCCCCC/C=C/[C@H](O)[C@H](CO)NCCCCCCCCCCCCCCCC [Compound 10o] | 91.0% | – | 40.8% | – |
| CCCCCCCCCCCCC/C=C/[C@@H](O)[C@H](CO)NC(=O)/C=C(\C)CC/C=C(\C)CCC=C(C)C [Compound 10p] | – | – | 39.2% | Disrafting Activity [%] (Raft liposomes; GS-96 as marker): 58.9% |
| CCCCCCCCCCCCC/C=C/[C@@H](OC)[C@H](CO)NC(=O)/C=C(\C)CC/C=C(\C)CCC=C(C)C [Compound 10q] | – | – | 61.6% | – |
| CCCCCCCCCCCCC/C=C/[C@@H](O)[C@H](CO)NC(=O)COC [Compound 10u] | 97.0% | 70.3% | – | inhibition at 25 µM (RBL-2H3 cells; [3]): 63% |
| CCCCCCCCCCCCC/C=C/[C@@H](OC)[C@H](CO)NC(=O)COCCOCCOCCOCCOC [Compound 10v] | 96.1% | 87.4% | – | inhibition at 20 µM (HIV-1 strain NL4-3): 45%; inhibition of viral reproduction (PR8 virus; influenza): very effective inhibition of the viral reproduction; inhibition at 12.5 µM (RBL-2H3 cells; Rattus norvegicus, RBL-2H3, 12.5 μM, vs solvent vehicle): 74% |
| CCCCCCCCCCCCC/C=C/[C@@H](O)[C@H](CO)NC(=O)CCOCCOCCOCCOCCN [Compound 10w] | 53.1% | – | – | inhibition at 20 µM (HIV-1 strain NL4-3): 52%; inhibition at 25 µM (PR8 virus; [2]): 50.3%; inhibition at 6.25 µM (RBL-2H3 cells; Rattus norvegicus, RBL-2H3, 6.25 μM, vs solvent vehicle): 69% |
